The values that follow come from ChEMBL document CHEMBL1125587, “Synthesis and antiviral and cytostatic properties of 3'-deoxy-3'-fluoro- and 2'-azido-3'-fluoro-2',3'-dideoxy-D-ribofuranosides of natural heterocyclic bases” (J Med Chem, 1991).

Values after ≈ are worked out from the molar mass of the structure shown.

In assay [1] the test system is L1210. Nature of the assay: Concentration required to reduce the viability of Murine leukemia L1210 cells. Format: functional, cell-based. The settings on record: Mus musculus.
Assay [2] can be described thus: Concentration (MIC), required to reduce virus-induced cytopathogenicity in Primary rabbit kidney (PRK ) cells against Vesicular stomatitis virus type 2. It counts as functional. As to conditions: Oryctolagus cuniculus. For orientation: Cytopathic effects are the visible damage that an infection or toxin causes in cultured cells.
For assay [3], the system named is MT4. The assay is described as follows: Concentration required to reduce the viability of Human T-lymphoblast MT-4 cells. It counts as functional, cell-based.
Assay [4] relates to HeLa. The assay is described as follows: Concentration (MIC), which is required to reduce virus-induced cytopathogenicity in HeLa cells against Polio virus type-1. As to conditions: Homo sapiens. Format: functional.
A short description of assay [5]: Concentration (MCC) required to cause a microscopically detectable alteration of normal cell morphology, in Primary rabbit kidney (PRK) cells. Format: functional, Oryctolagus cuniculus.
Assay [6] in a line: Concentration (MIC)required to reduce virus-induced cytopathogenicity in Primary rabbit kidney (PRK ) cells against HSV-1 with a strain KOS. As to conditions: Oryctolagus cuniculus. Format: functional.
In assay [7] the test system is Raji. The assay is described as follows: Concentration required to reduce the viability of Human B-lymphoblast Raji cells. It counts as functional, cell-based.
Assay [8] relates to HeLa. Nature of the assay: Concentration (MCC) required to cause a microscopically detectable alteration of normal cell morphology, in HeLa cells. It counts as functional. The settings on record: Homo sapiens.
The test system of assay [9] is Vero. Nature of the assay: Concentration (MIC), which is required to reduce virus-induced cytopathogenicity in African green monkey kidney (Vero B) cells against Reo-virus-1. It counts as functional. As to conditions: Chlorocebus sabaeus.
The subject of assay [10] is Vero. Nature of the assay: Concentration (MIC), which is required to reduce virus-induced cytopathogenicity in African green monkey kidney (Vero B) cells against forest virus. Format: functional. The settings on record: Chlorocebus sabaeus.
A short description of assay [11]: Concentration (MIC), required to reduce virus-induced cytopathogenicity in HeLa cells of Primary rabbit kidney (PRK ) cells against Vesicular stomatitis virus type 1. The settings on record: Oryctolagus cuniculus. Format: functional.
Assay [12] is described as follows: Concentration (MIC)required to reduce virus-induced cytopathogenicity in Primary rabbit kidney (PRK ) cells against HSV-2 with a strain G. The settings on record: Oryctolagus cuniculus. It counts as functional.
Assay [13] has as its system Vero. The assay is described as follows: Concentration (MCC) required to cause a microscopically detectable alteration of normal cell morphology, African green monkey kidney (Vero B) cells. Format: functional. The settings on record: Chlorocebus sabaeus.
A short description of assay [14]: Concentration (MIC), which is required to reduce virus-induced cytopathogenicity in Primary rabbit kidney (PRK ) cells against Vaccinia virus. It counts as functional. As to conditions: Oryctolagus cuniculus.
The subject of assay [15] is Vero. The assay is described as follows: Concentration (MIC), which is required to reduce virus-induced cytopathogenicity in African green monkey kidney (Vero B) cells against para-influenza virus-3. It counts as functional. The settings on record: Chlorocebus sabaeus.
The subject of assay [16] is Vero. Nature of the assay: Concentration (MIC), which is required to reduce virus-induced cytopathogenicity in African green monkey kidney (Vero B) cells against Sindbis virus. Format: functional. The settings on record: Chlorocebus sabaeus.
Assay [17] deals with MOLT-4F. The assay is described as follows: Concentration required to reduce the viability of Human T-lymphoblast Molt/4F cells. It counts as functional, cell-based.
The test system of assay [18] is Vero. The assay is described as follows: Concentration (MIC), which is required to reduce virus-induced cytopathogenicity in HeLa cells of African green monkey kidney (Vero B) cells against RNA viruses including para-influenza virus-3. Format: functional. As to conditions: Chlorocebus sabaeus.
Assay [19] in a line: Concentration (MIC)required to reduce virus-induced cytopathogenicity in Primary rabbit kidney (PRK ) cells against HSV-2 with strain G. Format: functional. As to conditions: Oryctolagus cuniculus.
A short description of assay [20]: Concentration (MIC), required to reduce virus-induced cytopathogenicity in Primary rabbit kidney (PRK ) cells against Vesicular stomatitis virus type 1. It counts as functional. As to conditions: Oryctolagus cuniculus.
Assay [21] relates to Vero. Nature of the assay: Concentration (MIC), which is required to reduce virus-induced cytopathogenicity in African green monkey kidney (Vero B) cells against Coxsackie virus-B4. Format: functional, Chlorocebus sabaeus.
Assay [22] can be described thus: Concentration (MIC)required to reduce virus-induced cytopathogenicity in Primary rabbit kidney (PRK ) cells against including HSV-2 with a strain G. It counts as functional. As to conditions: Oryctolagus cuniculus.
The nature of assay [23]: Concentration (MIC), required to reduce virus-induced cytopathogenicity in HeLa cells of Primary rabbit kidney (PRK ) cells against Vesicular stomatitis virus type 2. Format: functional. As to conditions: Oryctolagus cuniculus.
The test system of assay [24] is HeLa. Nature of the assay: Concentration (MIC), which is required to reduce virus-induced cytopathogenicity in HeLa cells o against Polio virus type-1. It counts as functional. The settings on record: Homo sapiens.
Assay [25] in a line: Concentration (MIC), which is required to reduce virus-induced cytopathogenicity in HeLa cells of Primary rabbit kidney (PRK ) cells against DNA viruses including Vaccinia virus. Format: functional. The settings on record: Oryctolagus cuniculus.
The test system of assay [26] is Vero. Nature of the assay: Concentration (MIC), which is required to reduce virus-induced cytopathogenicity in African green monkey kidney (Vero B) cells against RNA viruses including Coxsackie virus-B4. Format: functional. As to conditions: Chlorocebus sabaeus.
For assay [27], the system named is HeLa. Nature of the assay: Concentration (MIC), which is required to reduce virus-induced cytopathogenicity in Primary rabbit kidney (PRK ) cells against Polio virus type-1. The settings on record: Homo sapiens. It counts as functional.
Setting [28] is: Chlorocebus sabaeus, read-out: MIC.

Turning to `Nc1ncnc2c1ncn2[C@@H]1O[C@H](CO)[C@@H](F)[C@H]1O`, the IC50 (in general, the midpoint of a concentration-inhibition curve) in [1] turned out to be 1.6 µg/mL (≈ 5.94 µM); in assay [3], 0.22 µg/mL (≈ 0.817 µM); in [7], 3.9 µg/mL (≈ 14.5 µM); in [17] it was 28 µg/mL (≈ 104 µM). The MIC was over 10 µg/mL in assay [2]; 4 µg/mL (≈ 14.9 µM) in assay [4]; over 10 µg/mL in assay [6]; 1 µg/mL (≈ 3.71 µM) in [9]; 4 µg/mL (≈ 14.9 µM) in assay [10]; over 40 µg/mL in assay [11]. The MIC was over 10 µg/mL in assay [12], 2 µg/mL (≈ 7.43 µM) in [14], over 4 µg/mL in [15] and 4 µg/mL (≈ 14.9 µM) in assay [16]. The MCC was over 40 µg/mL in assay [5], 40 µg/mL in [8] and 40 µg/mL in assay [13].
Regarding `Cc1cn([C@H]2O[C@H](CO)[C@@H](F)[C@H]2N=[N+]=[N-])c(=O)[nH]c1=O`, the MIC in assay [18], in assay [2], in assay [19], in assay [4], in assay [6] and in assay [9] was over 400 µg/mL in each case. The MIC is over 400 µg/mL in [10]; under 400 µg/mL in [20]; over 400 µg/mL in assay [14]; over 400 µg/mL in [16]; over 400 µg/mL in [21] (setting [28]). For the same compound, the MCC in [5], in [8] and in [13] was over 400 µg/mL throughout.
With `[N-]=[N+]=NC1C(F)C(CO)OC1n1cnc2c(N)ncnc21` (centres undefined), the MIC in assay [2] is over 200 µg/mL; in [22], over 200 µg/mL; in [4] it was over 200 µg/mL; in [6], over 400 µg/mL; in assay [9], over 200 µg/mL; in [10] it was over 200 µg/mL. Also, the MIC is 300 µg/mL (≈ 1020 µM) in [11]; 300 µg/mL (≈ 1020 µM) in [14]; over 200 µg/mL in assay [15]; over 200 µg/mL in assay [16]; over 200 µg/mL in assay [21]; 300 µg/mL (≈ 1020 µM) in assay [21] (setting [28]). Also, the MCC in assay [5], in assay [8] and in [13] was over 400 µg/mL in each case.
For `Cc1cn([C@@H]2O[C@H](CO)[C@@H](F)[C@H]2N=[N+]=[N-])c(=O)[nH]c1=O`, the MIC in [2], in [4], in assay [6], in [9], in assay [10] and in assay [12] was over 400 µg/mL in each case. Also, the MIC in [20], in [14], in assay [15], in assay [16] and in assay [21] (setting [28]) was over 400 µg/mL in each case. For the same compound, the MCC in assay [5], in assay [8] and in assay [13] was over 400 µg/mL each time.
Take `Nc1ccn([C@@H]2O[C@H](CO)[C@H](F)[C@H]2O)c(=O)n1`: the IC50 was found to be 39 µg/mL (≈ 159 µM) in assay [1], 7.9 µg/mL (≈ 32.2 µM) in assay [3], 98 µg/mL (≈ 400 µM) in [7] and 65 µg/mL (≈ 265 µM) in assay [17]. Also, the MCC in assay [5], in assay [8] and in [13] was over 400 µg/mL throughout. In addition, the MIC in assay [6] is over 400 µg/mL; in assay [9] it was 150 µg/mL (≈ 612 µM); in assay [10] it was over 400 µg/mL; in [12], over 400 µg/mL; in [23], 300 µg/mL (≈ 1220 µM); in assay [20], over 400 µg/mL. Moreover, the MIC was over 400 µg/mL in assay [14]; over 400 µg/mL in assay [15]; 300 µg/mL (≈ 1220 µM) in assay [16]; 300 µg/mL (≈ 1220 µM) in assay [21]; 150 µg/mL (≈ 612 µM) in assay [21] (setting [28]); 150 µg/mL (≈ 612 µM) in assay [24].
As for `O=c1ccn([C@@H]2O[C@H](CO)[C@@H](F)[C@H]2O)c(=O)[nH]1`, the IC50 was over 100 µg/mL in assay [1], 6.9 µg/mL (≈ 28 µM) in assay [3], over 100 µg/mL in assay [7] and over 100 µg/mL in [17]. Further, the MIC in [2] was over 400 µg/mL; in [4], 150 µg/mL (≈ 609 µM); in [25], over 400 µg/mL; in [26], 300 µg/mL (≈ 1220 µM); in assay [6], over 400 µg/mL; in assay [9] it was 150 µg/mL (≈ 609 µM). For the same compound, the MIC is over 400 µg/mL in assay [10]; over 400 µg/mL in [12]; over 400 µg/mL in assay [20]; over 400 µg/mL in assay [15]; 300 µg/mL (≈ 1220 µM) in [16]; 300 µg/mL (≈ 1220 µM) in [21] (setting [28]). In addition, the MCC in assay [5], in [8] and in assay [13] was over 400 µg/mL in each case.
For `Nc1nc(O)c2ncn([C@@H]3O[C@H](CO)[C@@H](F)[C@H]3O)c2n1`, the MIC was 150 µg/mL (≈ 526 µM) in assay [27]; over 200 µg/mL in assay [2]; over 100 µg/mL in [6]; over 200 µg/mL in assay [9]; 40 µg/mL (≈ 140 µM) in assay [10]; over 100 µg/mL in assay [12]. For the same compound, the MIC in [20] was over 200 µg/mL; in assay [14], 10 µg/mL (≈ 35.1 µM); in assay [15] it was over 100 µg/mL; in assay [16], 40 µg/mL (≈ 140 µM). The half-maximal inhibitory concentration (IC50) is 5 µg/mL (≈ 17.5 µM) in assay [1], over 100 µg/mL in assay [3], 29 µg/mL (≈ 102 µM) in assay [7] and 75 µg/mL (≈ 263 µM) in assay [17]. In addition, the MCC in assay [5] is 200 µg/mL; in [8] it was over 400 µg/mL; in assay [13], 400 µg/mL.
Turning to `[N-]=[N+]=NC1C(F)C(CO)OC1n1ccc(N)nc1=O` (centres undefined), the MIC in assay [2], in [4], in assay [6], in [9], in assay [10] and in assay [12] was over 400 µg/mL in each case. For the same compound, the MIC in [20] was over 300 µg/mL; in assay [14] it was over 400 µg/mL; in assay [15] it was over 400 µg/mL; in assay [16], over 400 µg/mL; in [21] (setting [28]) it was over 400 µg/mL. The MCC in assay [5], in assay [8] and in [13] was over 400 µg/mL in each case.
